The source of these data is US20160326143A1, “COMPOUNDS AND USES” (AstraZeneca AB, priority 2015, published 2016).

Recombinant human LTC4 synthase, sequence (Q16873 whole entry): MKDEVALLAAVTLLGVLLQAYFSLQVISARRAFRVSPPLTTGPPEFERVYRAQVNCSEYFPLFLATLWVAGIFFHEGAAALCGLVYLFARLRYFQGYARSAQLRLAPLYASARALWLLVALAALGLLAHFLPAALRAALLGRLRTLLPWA

This test concerns the target Recombinant human LTC4 synthase (Homo sapiens (Human), UniProt Q16873). As to the kind of experiment: In vitro hLTC4 synthase enzyme assay (Test A). Type of test: biochemical. To be noted: Test A (Examples 1-61); substrate LTA4, LTC4 detected by HTRF; median of at least two determinations. The procedure:
In Vitro hLTC4 Synthase Enzyme Assay (Test A)
Recombinant human LTC4 synthase is expressed in Piccia pastoralis and the purified enzyme is dissolved in 25 mM tris-buffer pH 7.8 supplemented with 0.1 mM glutathione (GSH) and stored at −80° C.
The buffer is used as background. Runs are performed in duplicates.
The reaction is stopped after 1 min by addition of double the reaction volume of a stop solution (MeOH:H2O:acetic acid 70:30:1).
After 15 fold dilution in PBS, LTC4 formation is detected with LTC4 HTRF kit (Cisbio, cat. No 64LC4PEC) and a fluorescence reader. Typically 6 μL of sample is mixed with 3 μL of each of the HTRF reagents d2 and k and analyzed as described in the kit manual.
Regarding `COc1nc(C(=O)C2CC2C(=O)O)ncc1N(CC1CC1)c1ccc(F)c2ccccc12` (centres unmarked) [Example 58, 2-(5-((Cyclopropylmethyl)(4-fluoronaphthalen-1-yl)amino)-4-methoxypyrimidine-2-carbonyl)cyclopropanecarboxylic acid], the half-maximal inhibitory concentration (IC50) (in general, the midpoint of a concentration-inhibition curve) was 19 nM.
On to `COc1ccc(S(=O)(=O)NC(=O)C2CC2C(=O)c2ncc(N(CC3CC3)c3ccc(Cl)cc3)cc2OC)cc1` (centres unmarked) [Example 41, 2-(5-((4-Chlorophenyl)(cyclopropylmethyl)amino)-3-methoxypicolinoyl)-N-((4-methoxyphenyl)sulfonyl)-cyclopropanecarboxamide], for which the concentration for half-maximal inhibition (IC50) was 81 nM.
With `COc1cc(N(CC2CC2)c2cccc3ccccc23)cnc1C(=O)C1CC1c1nnn[nH]1` (centres unmarked) [Example 60, (2-(1H-Tetrazol-5-yl)cyclopropyl)(5-((cyclopropylmethyl)(naphthalen-1-yl)amino)-3-methoxypyridin-2-yl)methanone], the IC50 was 96 nM.
Under `COc1nc(C(=O)C2CC2C(=O)O)ncc1N(CC1CC1)c1cccc2ccccc12` (centres unmarked) [Example 57, 2-(5-((Cyclopropylmethyl)(naphthalen-1-yl)amino)-4-methoxypyrimidine-2-carbonyl)cyclopropanecarboxylic acid] stands 50 nM; under `COc1cc(N(CC2(C)CC2)c2ccc(Cl)cc2)cnc1C(=O)C1CC1C(=O)O` (centres unmarked) [Example 5, 2-(5-((4-Chlorophenyl)((1-methylcyclopropyl)methyl)amino)-3-methoxypicolinoyl)cyclopropanecarboxylic acid], 38 nM.
Under `COc1cc(N(Cc2cccc(C)c2C)CC2CC2)cnc1C(=O)C1CC1C(=O)O` (centres unmarked) [Example 28, 2-(5-((Cyclopropylmethyl)(2,3-dimethylbenzyl)amino)-3-methoxypicolinoyl)cyclopropanecarboxylic acid] stands 67 nM; under `COc1cc(N(CC2CC2)c2ccc(C)c3ncccc23)ccc1C(=O)C1CC1C(=O)O` (centres unmarked) [Example 52, 2-(4-((Cyclopropylmethyl)(8-methylquinolin-5-yl)amino)-2-methoxybenzoyl)cyclopropanecarboxylic acid], 359 nM; under `COc1cc(N(CC2CC2)c2ccc3cccc4c3c2CC4)cnc1C(=O)C1CC1C(=O)O` (centres unmarked) [Example 38, 2-(5-((Cyclopropylmethyl)(1,2-dihydroacenaphthylen-3-yl)amino)-3-methoxypicolinoyl)cyclopropanecarboxylic acid], 31 nM.
Consider `COc1cc(N(Cc2ccc(F)c(F)c2F)CC2CC2)cnc1C(=O)C1CC1C(=O)O` (centres unmarked) [Example 29, 2-(5-((Cyclopropylmethyl)(2,3,4-trifluorobenzyl)amino)-3-methoxypicolinoyl)cyclopropanecarboxylic acid], for which the IC50 was 370 nM.
In the case of `COc1cc(N(CC2CC2)c2ccc(F)c3ccccc23)cnc1C(=O)C1CC1c1nnn[nH]1` (centres unmarked) [Example 61, (2-(1H-Tetrazol-5-yl)cyclopropyl)(5-((cyclopropylmethyl)(4-fluoronaphthalen-1-yl)amino)-3-methoxypyridin-2-yl)methanone], the concentration for half-maximal inhibition (IC50) is 39 nM.
Under `COc1cc(N(Cc2cccc(C(F)(F)F)c2F)CC2CC2)cnc1C(=O)C1CC1C(=O)O` (centres unmarked) [Example 31, 2-(5-((Cyclopropylmethyl)(2-fluoro-3-(trifluoromethyl)benzyl)amino)-3-methoxypicolinoyl)cyclopropanecarboxylic acid] stands 331 nM; under `COc1cc(N(CC2CC2)c2ccc(C(F)(F)F)c3ccccc23)cnc1C(=O)C1CC1C(=O)O` (centres unmarked) [Example 34, 2-(5-((Cyclopropylmethyl)(4-(trifluoromethyl)naphthalen-1-yl)amino)-3-methoxypicolinoyl)cyclopropanecarboxylic acid], 19 nM; under `COc1cc(N(Cc2ccc(F)c(Cl)c2F)CC2CC2)cnc1C(=O)C1CC1C(=O)O` (centres unmarked) [Example 30, 2-(5-((3-Chloro-2,4-difluorobenzyl)(cyclopropylmethyl)amino)-3-methoxypicolinoyl)cyclopropanecarboxylic acid], 152 nM.
On to `COc1cc(N(CC2CC2)c2ccc(Cl)cc2)cnc1C(=O)C1CC1C(=O)NS(=O)(=O)C1CC1` (centres unmarked) [Example 40, 2-(5-((4-Chlorophenyl)(cyclopropylmethyl)amino)-3-methoxypicolinoyl)-N-(cyclopropylsulfonyl)-cyclopropanecarboxamide], for which the IC50 came out at 356 nM.
Under `COc1cc(N(Cc2ccc(Cl)cc2)CC2CC2)cnc1C(=O)C1CC1C(=O)O` (centres unmarked) [Example 13, 2-(5-((4-Chlorobenzyl)(cyclopropylmethyl)amino)-3-methoxypicolinoyl)cyclopropanecarboxylic acid] stands 34 nM.
The result for `COc1cc(N(Cc2ccc(Cl)cc2)CC2CC2)ccc1C(=O)C1CC1C(=O)O` (centres unmarked) [Example 51, 2-(4-((4-Chlorobenzyl)(cyclopropylmethyl)amino)-2-methoxybenzoyl)cyclopropanecarboxylic acid] reads 68 nM; that for `O=C(O)C1CC1C(=O)c1ccc(N(CC2CC2)c2ccc(Cl)cc2)cn1` (centres unmarked) [Example 54, 2-(5-((4-Chlorophenyl)(cyclopropylmethyl)amino)picolinoyl)cyclopropanecarboxylic acid], 424 nM.
Consider `COc1cc(N(CC2CC2)c2ccc(Cl)c3ccccc23)ccc1C(=O)C1CC1C(=O)O` (centres unmarked) [Example 47, 2-(4-((4-Chloronaphthalen-1-yl)(cyclopropylmethyl)amino)-2-methoxybenzoyl)cyclopropanecarboxylic acid], for which the IC50 was 61 nM.
Under `COc1cc(N(CC2(C)CC2)c2ccc3c(c2)CCC3)cnc1C(=O)C1CC1C(=O)O` (centres unmarked) [Example 6, 2-(5-((2,3-Dihydro-1H-inden-5-yl)((1-methylcyclopropyl)methyl)amino)-3-methoxypicolinoyl)cyclopropanecarboxylic acid] stands 47 nM; under `COc1cc(N(Cc2ccc(F)cc2)CC2CC2)cnc1C(=O)C1CC1C(=O)O` (centres unmarked) [Example 19, 2-(5-((Cyclopropylmethyl)(4-fluorobenzyl)amino)-3-methoxypicolinoyl)cyclopropanecarboxylic acid], 105 nM.
Turning to `COc1cc(N(CC2CC2)c2ccc(C)c3ccccc23)ccc1C(=O)C1CC1C(=O)O` (centres unmarked) [Example 45, 2-(4-((Cyclopropylmethyl)(4-methylnaphthalen-1-yl)amino)-2-methoxybenzoyl)cyclopropanecarboxylic acid], the IC50 amounted to 62 nM.
Turning to `COc1cc(N(Cc2cccc(Cl)c2)CC2CC2)cnc1C(=O)C1CC1C(=O)O` (centres unmarked) [Example 18, 2-(5-((3-Chlorobenzyl)(cyclopropylmethyl)amino)-3-methoxypicolinoyl)cyclopropanecarboxylic acid], the IC50 was 39 nM.
On to `COc1cc(N(CC2CC2)c2cccc3ccccc23)cnc1C(=O)C1CC1C(=O)O` (centres unmarked) [Example 9, 2-(5-((Cyclopropylmethyl)(naphthalen-1-yl)amino)-3-methoxypicolinoyl)cyclopropanecarboxylic acid], for which the half-inhibitory concentration (IC50) amounted to 24 nM.
The result for `COCC1(CN(c2ccc(Cl)cc2)c2cnc(C(=O)C3CC3C(=O)O)c(OC)c2)CC1` (centres unmarked) [Example 4, 2-(5-((4-Chlorophenyl)((1-(methoxymethyl)cyclopropyl)methyl)amino)-3-methoxypicolinoyl)cyclopropanecarboxylic acid] reads 263 nM.
The result for `O=C(O)C1CC1C(=O)c1ccc(N(Cc2ccc(Cl)cc2)CC2CC2)cn1` (centres unmarked) [Example 55, 2-(5-((4-Chlorobenzyl)(cyclopropylmethyl)amino)picolinoyl)cyclopropanecarboxylic acid] reads 636 nM; that for `COc1cc(N(Cc2cccc(C(F)(F)F)c2C)CC2CC2)cnc1C(=O)C1CC1C(=O)O` (centres unmarked) [Example 20, 2-(5-((Cyclopropylmethyl)(2-methyl-3-(trifluoromethyl)benzyl)amino)-3-methoxypicolinoyl)cyclopropanecarboxylic acid], 88 nM; that for `COc1cc(N(CC2CC2)c2ccc(C)c(C)c2)ccc1C(=O)C1CC1C(=O)O` (centres unmarked) [Example 50, 2-(4-((Cyclopropylmethyl)(3,4-dimethylphenyl)amino)-2-methoxybenzoyl)cyclopropanecarboxylic acid], 75 nM.
As to `COc1cc(N(CC2CC2)c2ccc(Cl)cc2)cnc1C(=O)C1CC1C(=O)NS(=O)(=O)c1ccc(OC(F)(F)F)cc1` (centres unmarked) [Example 42, 2-(5-((4-Chlorophenyl)(cyclopropylmethyl)amino)-3-methoxypicolinoyl)-N-((4-(trifluoromethoxy)phenyl)-sulfonyl)cyclopropanecarboxamide], the IC50 was found to be 277 nM.
In the case of `COc1cc(N(CC2CC2)c2ccc(F)c3ccccc23)ccc1C(=O)C1CC1C(=O)O` (centres unmarked) [Example 46, 2-(4-((Cyclopropylmethyl)(4-fluoronaphthalen-1-yl)amino)-2-methoxybenzoyl)cyclopropanecarboxylic acid], the IC50 was 26 nM.
The result for `COc1cc(N(CC2CC2)c2ccc(Cl)cc2)cnc1C(=O)C1CC1C(=O)NS(=O)(=O)c1ccccc1F` (centres unmarked) [Example 43, 2-(5-((4-Chlorophenyl)(cyclopropylmethyl)amino)-3-methoxypicolinoyl)-N-((2-fluorophenyl)sulfonyl)-cyclopropanecarboxamide] reads 74 nM; that for `COc1cc(N(CC2CC2)c2ccc(C)c3ccccc23)cnc1C(=O)C1CC1C(=O)O` (centres unmarked) [Example 11, 2-(5-((Cyclopropylmethyl)(4-methylnaphthalen-1-yl)amino)-3-methoxypicolinoyl)cyclopropanecarboxylic acid], 35 nM.
Regarding `COc1cc(N(CC2CC2)c2ccc(C)c3ncccc23)cnc1C(=O)C1CC1C(=O)O` (centres unmarked) [Example 8, 2-(5-((Cyclopropylmethyl)(8-methylquinolin-5-yl)amino)-3-methoxypicolinoyl)cyclopropanecarboxylic acid], the IC50 was determined as 279 nM.
